This note sets out measurements from ChEMBL document CHEMBL6074686 (Eur J Med Chem, 2025).

The structures appear in SMILES notation. Activity calls are given as the source filed them. The calls are words filed in the database; no cut-off is given here.

Broadly, the inhibition is the drop in the measured response relative to a control, in per cent. As a reminder, the IC50 is the concentration that gives 50% inhibition.

A short description of data set [1]: Toxicity in female BALB/c nude mouse xenografted with human SK-OV-3 cells assessed as drug tolerance by measuring body weight loss at 30 mg/kg, administered via tail vein for 5 days and measured daily. The data set is classed as organism-based. As to conditions: in vivo, iv, 120 h, time 5 day.
The test system of data set [2] is MCF7. The data set is described as follows: Inhibition of colony formation in human MCF7 cells at 25 nM incubated for 72 hrs by crystal violet staining based assay relative to control. The data set is classed as functional.
Data set [3] concerns MCF7. The data set is described as follows: Inhibition of cell migration in human MCF7 cells assessed as wound closure at 20 nM incubated for 24 hrs by wound healing assay (reference value: 44.5 +/- 8.8%). Set-up: scale not given: the % may be the effect or the level left. In kind it is functional.
The subject of data set [4] is MCF7. The data set is described as follows: Antitumor activity against human MCF7 cells assessed as reduction in cell viability incubated for 72 hrs by CCK8 assay. The data set is classed as functional, cell-based. The conditions noted are these: MCF7, 72 h.
Data set [5] deals with MCF7. The data set is described as follows: Induction of apoptosis in human MCF7 cells assessed as downregulation of Bcl-2 expression incubated for 24 hrs by Western blotting analysis. The data set is classed as functional, cell-based. (In general: Immunoblotting shows a protein as a band on a membrane.)
A short description of data set [6]: Toxicity in female BALB/c nude mouse xenografted with human SK-OV-3 cells assessed as pathological changes in lung at 5 to 10 mg/kg, […] via tail vein once every 2 to 3 days by H and E staining based analysis. In kind it is organism-based. The conditions noted are these: in vivo, dose lower 5 mg/kg, time lower 2 day, dose upper 10 mg/kg, time upper 3 day.

In a further data set the test system is SK-OV-3. The data set is described as follows: Induction of cell cycle arrest in human SK-OV-3 cells assessed as increase in G2/M phase cells at 40 nM incubated for 24 hrs by PI staining based flow cytometric analysis (reference value: 24.6 +/- 2.0%). The data set is classed as functional. On the technique in general: In flow cytometry, cells or beads pass a laser one at a time.

For data set [7], the system named is MCF7. Description: Induction of apoptosis in human MCF7 cells assessed as downregulation of cleaved-PARP expression at 100 nM incubated for 24 hrs by Western blotting analysis. The data set is classed as functional, cell-based.

Take `CNc1nc(N2CCCc3cc(OC)ccc32)c2cc(F)ccc2n1`: the Activity result was “Toxic” in data set [1], 32.2% in the data set with MCF7 [3], “Non-toxic” in data set [6] and 94.5% with SK-OV-3. The compound also yielded an inhibition at 0.025 µM in the data set with MCF7 [2] of 32.8%. The 50% inhibitory concentration (IC50) with MCF7 [4] is 0.4 nM. The result with MCF7 [5] was Active. Besides, in the data set with MCF7 [7], the result was inactive.
